Source: patent US20150105252A1, “SUBSTITUTED PYRAZOLES AS HERBICIDES” (E I DU PONT DE NEMOURS AND COMPANY, priority 2013, published 2015)

Experiments:
[1] = test system: pigweed; experiment: Test A preemergence; assay type: in vivo, Amaranthus retroflexus; settings: 0 to 100 scale
Summary of the method: (§1)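 Greenhouse test in loam soil/sand blend; compounds formulated in non-phytotoxic solvent with surfactant, applied as preemergence directed soil spray or postemergence to plants 2–10 cm tall at one- to two-leaf stage. Injury rated visually versus untreated controls after approximately 10 days on a 0 (no effect) to 100 (complete control) scale.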

[2] = test system: morningglory; experiment: Test A postemergence; assay type: in vivo, Ipomoea spp.
Summary of the method: as §1

[3] = test system: corn; experiment: Test A postemergence; assay type: in vivo, Zea mays
From the text: (§2) Seeds of plant species selected from barnyardgrass (Echinochloa crus-galli), kochia (Kochia scoparia), common ragweed (Ambrosia elation), Italian ryegrass (Lolium multiflorum), crabgrass, large (large crabgrass, Digitaria sanguinalis), foxtail, giant (giant foxtail, Setaria faberii), morningglory (Ipomoea spp.), pigweed (redroot pigweed, Amaranthus retroflexus), velvetleaf (Abutilon theophrasti), wheat (Triticum aestivum), and corn (Zea mays) were planted into a blend of loam soil and sand and treated preemergence with a directed soil spray using test chemicals formulated in a non-phytotoxic solvent mixture which included a surfactant.
(§3) At the same time, plants selected from these crop and weed species and also blackgrass (Alopecurus myosuroides), and galium (catchweed bedstraw, Galium aparine) were planted in pots containing the same blend of loam soil and sand and treated with postemergence applications of test chemicals formulated in the same manner. Plants ranged in height from 2 to 10 cm and were in the one- to two-leaf stage for the postemergence treatment. Treated plants and untreated controls were maintained in a greenhouse for approximately 10 days, after which time all treated plants were compared to untreated controls and visually evaluated for injury. Plant response ratings, summarized in Table A, are based on a 0 to 100 scale where 0 is no effect and 100 is complete control. A dash (-) response means no test result.

[4] = test system: morningglory; experiment: Test A preemergence; assay type: in vivo, Ipomoea spp.; settings: 0 to 100 scale
Summary of the method: as §1

[5] = test system: crabgrass, large; experiment: Test A postemergence; assay type: in vivo, Digitaria sanguinalis
Summary of the method: as §1

[6] = test system: velvetleaf; experiment: Test A preemergence; assay type: in vivo, Abutilon theophrasti; settings: 0 to 100 scale
Summary of the method: as §1

[7] = test system: barnyardgrass; experiment: Test A preemergence; assay type: in vivo, Echinochloa crus-galli; settings: 0 to 100 scale
Summary of the method: as §1

[8] = test system: wheat; experiment: Test A postemergence; assay type: in vivo, Triticum aestivum
Summary of the method: as §1

[9] = test system: barnyardgrass; experiment: Test A postemergence; assay type: in vivo, Echinochloa crus-galli; settings: Postemergence
From the text: as §2, §3

[10] = test system: corn; experiment: Test A preemergence; assay type: in vivo, Zea mays; settings: 0 to 100 scale
Summary of the method: as §1

[11] = test system: foxtail, giant; experiment: Test A postemergence; assay type: in vivo, Setaria faberii
From the text: as §2, §3

[12] = test system: pigweed; experiment: Test A postemergence; assay type: in vivo, Amaranthus retroflexus
From the text: as §2, §3

[13] = test system: foxtail, giant; experiment: Test A preemergence; assay type: in vivo, Setaria faberii; settings: 0 to 100 scale
Summary of the method: as §1

[14] = test system: wheat; experiment: Test A preemergence; assay type: in vivo, Triticum aestivum; settings: 0 to 100 scale
From the text: as §2, §3

[15] = test system: crabgrass, large; experiment: Test A preemergence; assay type: in vivo, Digitaria sanguinalis; settings: 0 to 100 scale
From the text: as §2, §3

[16] = test system: velvetleaf; experiment: Test A postemergence; assay type: in vivo, Abutilon theophrasti
Summary of the method: as §1

[17] = Preemergence, 500 g ai/ha, 0 no effect, 100 complete control
[18] = preemergence, 125 g ai/ha, visual injury, approx. 10 days
[19] = Postemergence, 500 g ai/ha, visual rating after approx. 10 days, 0 to 100 scale (0 no effect, 100 complete control)
[20] = postemergence, 125 g ai/ha, about 10 days, visual rating on 0 to 100 scale (0 no effect, 100 complete control)
[21] = 125 g ai/ha, 0 to 100 scale, 0 no effect, 100 complete control
[22] = 500 g ai/ha, visual rating after approx. 10 days, 0 to 100 scale (0 no effect, 100 complete control)
[23] = Preemergence, 1000 g ai/ha, 0 no effect, 100 complete control
[24] = Postemergence, 1000 g ai/ha, visual rating after approx. 10 days, 0 to 100 scale (0 no effect, 100 complete control)
[25] = 1000 g ai/ha, visual rating after approx. 10 days, 0 to 100 scale (0 no effect, 100 complete control)

Cc1cc(C(=O)NCC(F)(F)C(F)(F)F)nn1Cc1cccc(OC(F)(F)F)c1 [Compound 6]
Pigweed plant response rating [1, 17]: 50 | Pigweed plant response rating [1, 18]: 30 | Morningglory plant response rating [2, 19]: 60 | Morningglory plant response rating [2, 20]: 30 | Corn plant response rating [3, 19]: 0 | Corn plant response rating [3, 20]: 0 | Morningglory plant response rating [4, 17]: 0 | Morningglory plant response rating [4, 18]: 0 | Crabgrass, Large plant response rating [5, 19]: 30 | Crabgrass, Large plant response rating [5, 20]: 10 | Velvetleaf plant response rating [6, 17]: 0 | Velvetleaf plant response rating [6, 18]: 0 | Barnyardgrass plant response rating [7, 17]: 0 | Barnyardgrass plant response rating [7, 18]: 0 | Wheat plant response rating [8, 19]: 0 | Wheat plant response rating [8, 20]: 0 | Barnyardgrass plant response rating [9, 21]: 0 | Barnyardgrass plant response rating [9, 22]: 10 | Corn plant response rating [10, 17]: 0 | Corn plant response rating [10, 18]: 0 | Foxtail, Giant plant response rating [11, 19]: 20 | Foxtail, Giant plant response rating [11, 20]: 10 | Pigweed plant response rating [12, 19]: 60 | Pigweed plant response rating [12, 20]: 50 | Foxtail, Giant plant response rating [13, 17]: 20 | Foxtail, Giant plant response rating [13, 18]: 0 | Wheat plant response rating [14, 18]: 0 | Crabgrass, Large plant response rating [15, 17]: 20 | Crabgrass, Large plant response rating [15, 18]: 0 | Velvetleaf plant response rating [16, 19]: 40 | Velvetleaf plant response rating [16, 20]: 10

Cc1cc(C(=O)NCC(F)(F)F)nn1Cc1cc(F)cc(C(F)(F)F)c1 [Compound 13]
Pigweed plant response rating [1, 17]: 90 | Morningglory plant response rating [2, 19]: 100 | Morningglory plant response rating [2, 20]: 50 | Corn plant response rating [3, 19]: 0 | Corn plant response rating [3, 20]: 0 | Morningglory plant response rating [4, 18]: 0 | Crabgrass, Large plant response rating [5, 19]: 30 | Crabgrass, Large plant response rating [5, 20]: 20 | Velvetleaf plant response rating [6, 17]: 0 | Velvetleaf plant response rating [6, 18]: 0 | Barnyardgrass plant response rating [7, 17]: 0 | Barnyardgrass plant response rating [7, 18]: 0 | Wheat plant response rating [8, 19]: 0 | Wheat plant response rating [8, 20]: 0 | Barnyardgrass plant response rating [9, 21]: 0 | Barnyardgrass plant response rating [9, 22]: 20 | Corn plant response rating [10, 17]: 0 | Corn plant response rating [10, 18]: 0 | Foxtail, Giant plant response rating [11, 19]: 20 | Foxtail, Giant plant response rating [11, 20]: 0 | Pigweed plant response rating [12, 19]: 60 | Pigweed plant response rating [12, 20]: 40 | Foxtail, Giant plant response rating [13, 17]: 50 | Foxtail, Giant plant response rating [13, 18]: 0 | Wheat plant response rating [14, 18]: 0 | Crabgrass, Large plant response rating [15, 17]: 70 | Crabgrass, Large plant response rating [15, 18]: 10 | Velvetleaf plant response rating [16, 19]: 20 | Velvetleaf plant response rating [16, 20]: 0

CCc1cc(C(=O)NC(C)(C)C)nn1Cc1cccc(C(F)(F)F)c1 [Compound 50]
Pigweed plant response rating [1, 23]: 0 | Morningglory plant response rating [2, 24]: 10 | Corn plant response rating [3, 24]: 20 | Morningglory plant response rating [4, 23]: 0 | Crabgrass, Large plant response rating [5, 24]: 10 | Velvetleaf plant response rating [6, 23]: 0 | Barnyardgrass plant response rating [7, 23]: 10 | Wheat plant response rating [8, 24]: 0 | Barnyardgrass plant response rating [9, 25]: 10 | Corn plant response rating [10, 23]: 0 | Foxtail, Giant plant response rating [11, 24]: 30 | Pigweed plant response rating [12, 24]: 30 | Foxtail, Giant plant response rating [13, 23]: 30 | Wheat plant response rating [14, 23]: 0 | Crabgrass, Large plant response rating [15, 23]: 10 | Velvetleaf plant response rating [16, 24]: 10

C#CCNC(=O)c1cc(CC)n(Cc2cccc(C(F)(F)F)c2)n1 [Compound 41]
Pigweed plant response rating [1, 23]: 10 | Morningglory plant response rating [2, 24]: 100 | Corn plant response rating [3, 24]: 20 | Morningglory plant response rating [4, 23]: 20 | Crabgrass, Large plant response rating [5, 24]: 20 | Velvetleaf plant response rating [6, 23]: 0 | Barnyardgrass plant response rating [7, 23]: 10 | Wheat plant response rating [8, 24]: 10 | Barnyardgrass plant response rating [9, 25]: 10 | Corn plant response rating [10, 23]: 0 | Foxtail, Giant plant response rating [11, 24]: 20 | Pigweed plant response rating [12, 24]: 30 | Foxtail, Giant plant response rating [13, 23]: 50 | Wheat plant response rating [14, 23]: 0 | Crabgrass, Large plant response rating [15, 23]: 30 | Velvetleaf plant response rating [16, 24]: 10
